Earlier results, collected in patent publication US20230372346A1, “TREATMENT REGIMENS FOR EXON-20 INSERTION MUTANT EGFR CANCERS” (CULLINAN PEARL CORP., priority 2020, published 2023).

Conditions: human, in vivo; cited from earlier work

C=CC(=O)Nc1cc(Nc2ncc(C(=O)OC(C)C)c(-c3cn(C)c4ccccc34)n2)c(OC)cc1N(C)CCN(C)C [TAK-788, mobocertinib]
toxicity in the lowest-dose cohort where stable diseases or partial responses were observed: presented both grade 3 or above TRAEs and dose-limiting toxicities
